32 compounds from patent publication US20190270712A1, “COMPOSITIONS FOR THE TREATMENT OF PULMONARY FIBROSIS” (Vectus Biosystems Limited, priority 2016, published 2019) can be followed below.

One assay deals with lung fibrosis. Put plainly: In vivo screening: bleomycin-treated spontaneous hypertensive rats, lung fibrosis quantitated by histomorphometry (Masson Trichrome). The note with it: SHR given bleomycin at 14 weeks, 500 pmol/kg/min in drinking solution (5% ethanol) for 4 weeks from 16 weeks of age; for Fibrosis in the lung compared to 16 week controls: vs 16 week control (reversal of established fibrosis); for Fibrosis in the lung compared to 20 week controls: vs 20 week vehicle control (prevention). How it is done:
Fourteen week old spontaneous hypertensive rats (SHR) were anaesthetised using 3% isoflurane, the tongue was gently pulled forward and bleomycin […] in 200 μL of normal saline placed in the distal oropharynx using a micropipette while the nose is gently closed. Rats were then left to recover from anaesthesia. At 16 weeks of age SHR were randomised to control (16 weeks or 20 weeks) or treated groups. The 16 week controls were anaesthetised and had blood sampled and tissues harvested. The 20 week controls received drinking solution alone (5% ethanol) while the treated groups received test compound dissolved in the drinking water with concentration adjusted twice weekly to maintain a dose of 500 pmol/kg/min for 4 weeks. At 20 weeks of age rats were anaesthetised and had blood sampled and tissues harvested.
For histological examination lungs were fixed in formalin and sections from each of two levels were stained using Masson Trichrome. Fibrosis was quantitated by histomorphometry by an observer blinded to experimental group.

For assay [1], the system named is human small airway epithelial cells. As to the kind of experiment: In vitro screening: xCELLigence SP cellular impedance (cell index). To be noted: 10 μM, 20 μM or 30 μM test compound, 0.25% DMSO, measured every 20 seconds for 3 hours. It is filed as cell-based. On the procedure: The xCELLigence SP system (Roche) was used to measure changes in cellular impedance (cell index) following the treatment of human small airway epithelial cells (ATCC) with test compound.
Briefly, 50 μl of cell culture medium (DMEM low glucose supplemented with 15% fetal bovine serum at 37° C.) was added to each well of an E-Plate 96 (Roche), and the background impedance in each well was measured. 50 μl of human small airway epithelial cell suspension (10,000 cells/well) was then added to the appropriate wells of the E-Plate 96. Cell index was monitored for each well of the E-Plate 96 in a RTCA SP Station within the cell culture incubator. After overnight incubation for 16-20 hours at 5% CO2 and 95% humidity, 100 μl of test compound solution (test compounds were prepared in DMSO and diluted with cell culture medium to a concentration of 10 μM, 20 μM or 30 μM of test compound with a final DMSO concentration of 0.25%) was added to the appropriate wells of the E-Plate 96 and cell index values were measured immediately following compound treatment every 20 seconds for 3 hours. Cell index value is baseline-corrected by subtracting the cell index of vehicle-treated cells and normalized by dividing by the cell index at the time point immediately before compound addition. Baseline normalized cell index as a function of time is plotted using Roche RTCA software.

Structures are written as SMILES.

With `NC(CCc1cc(-c2ccccc2)ccc1-c1cccc(O)c1)C(F)(F)F` (stereo not drawn) [A6], in the assay with lung fibrosis, the “Fibrosis in the lung compared to 16 week controls” value was “decreased” and the “Fibrosis in the lung compared to 20 week controls” value is on record as “decreased”. Besides, in assay [1], the “Cellular impedance (baseline normalized cell index) response” value is “Negative impedance responses”.

Turning to `O=C1NCCC1Cc1cc(-c2ccccc2)ccc1-c1cccc(O)c1` (stereo not drawn) [A26], the “Cellular impedance (baseline normalized cell index) response” value in assay [1] is listed as “Negative impedance responses”.

For the compound `O=C1NCC/C1=C\c1cc(-c2ccccc2)ccc1-c1cccc(O)c1` [A27], the “Cellular impedance (baseline normalized cell index) response” value in assay [1] is “Negative impedance responses”.

On to `O=C1CC(Cc2cc(-c3ccccc3)ccc2-c2cccc(O)c2)C(=O)N1` (stereo not drawn) [A30], for which the “Cellular impedance (baseline normalized cell index) response” value in assay [1] is recorded as “Negative impedance responses”.

As for `O=C1NC(=O)C(Cc2cc(-c3ccccc3)ccc2-c2cccc(O)c2)N1` (stereo not drawn) [A32], in the assay with lung fibrosis, the “Fibrosis in the lung compared to 16 week controls” value is on record as “decreased” and the “Fibrosis in the lung compared to 20 week controls” value is “decreased”. In addition, the “Cellular impedance (baseline normalized cell index) response” value in assay [1] was “Negative impedance responses”.

In the case of `Nc1nocc1Cc1cc(-c2ccccc2)ccc1-c1cccc(O)c1` [A35], in assay [1], the “Cellular impedance (baseline normalized cell index) response” value was “Negative impedance responses”.

On to `NOCCc1cc(-c2ccccc2)ccc1-c1cccc(O)c1` [A56], for which, in assay [1], the “Cellular impedance (baseline normalized cell index) response” value was “Negative impedance responses”.

Turning to `O=C1NC(=O)C(Cc2cc(-c3ccccc3)ccc2-c2cccc(O)c2)O1` (stereo not drawn) [A79], in the assay with lung fibrosis, the “Fibrosis in the lung compared to 16 week controls” value is recorded as “decreased” and the “Fibrosis in the lung compared to 20 week controls” value was “decreased”. In addition, the “Cellular impedance (baseline normalized cell index) response” value in assay [1] is reported as “Negative impedance responses”.

On to `CS(=O)(=O)Nc1cc(NS(C)(=O)=O)cc(-c2ccc(-c3cncnc3)cc2CCC(N)=O)c1` [D4], for which, in assay [1], the “Cellular impedance (baseline normalized cell index) response” value is “Negative impedance responses”.

Regarding `CCOC(=O)C(Cc1cc(-c2cncnc2)ccc1-c1cc(N)ncn1)C(=O)OCC` [D5, Diethyl (2-(6-aminopyrimidin-4-yl)-5-(pyrimidin-5-yl)benzyl)propanedioate], the “Cellular impedance (baseline normalized cell index) response” value in assay [1] was “Negative impedance responses”.

As to `NC(=O)CCc1cc(-c2cncnc2)ccc1-c1cc(N)ncn1` [D6, 3-(2-(6-Aminopyrimidin-4-yl)-5-(pyrimidin-5-yl)phenyl)propanamide], in the assay with lung fibrosis, the “Fibrosis in the lung compared to 16 week controls” value is reported as “decreased” and the “Fibrosis in the lung compared to 20 week controls” value is “decreased”. In addition, the “Cellular impedance (baseline normalized cell index) response” value in assay [1] is “Negative impedance responses”.

Regarding `CS(=O)(=O)Nc1cc(NS(C)(=O)=O)cc(-c2ccc(-c3cccnn3)cc2CCC(N)=O)c1` [D10], the “Cellular impedance (baseline normalized cell index) response” value in assay [1] is on record as “Negative impedance responses”.

With `CS(=O)(=O)Nc1cc(-c2ccc(-c3cccnn3)cc2CCC(N)=O)ccn1` [D11, 3-(2-(2-((Methylsulfonyl)amino)pyridin-4-yl)-5-(pyridazin-3-yl)phenyl)propanamide], in assay [1], the “Cellular impedance (baseline normalized cell index) response” value was “negative deflection”.

Consider `NC(=O)CCc1cc(-c2cccnn2)ccc1-c1cc(N)ncn1` [D12, 3-(2-(6-Aminopyrimidin-4-yl)-5-(pyridazin-3-yl)phenyl)propanamide], for which the “Cellular impedance (baseline normalized cell index) response” value in assay [1] is recorded as “Negative impedance responses”.

On to `CS(=O)(=O)NC1=CC(c2cccc(NS(C)(=O)=O)c2)(c2cnccn2)CC(CCC(N)=O)=C1` (stereo not drawn) [D16, 3-(3′,5-Bis((methylsulfonyl)amino)-1-(pyrazin-2-yl)biphenyl-3-yl)propanamide], for which the “Cellular impedance (baseline normalized cell index) response” value in assay [1] is given as “Negative impedance responses”.

For `CS(=O)(=O)Nc1cc(-c2ccc(-c3cnccn3)cc2CCC(N)=O)ccn1` [D17, 3-[2-(2-[(Methylsulfonyl)amino]pyridin-4-yl)-5-(pyrazin-2-yl)phenyl]propanamide], the “Cellular impedance (baseline normalized cell index) response” value in assay [1] is on record as “Negative impedance responses”.

For `NC(=O)CCc1cc(-c2cnccn2)ccc1-c1cc(N)ncn1` [D18, 3-(2-(6-Aminopyrimidin-4-yl)-5-(pyrazin-2-yl)phenyl)propanamide], the “Cellular impedance (baseline normalized cell index) response” value in assay [1] is “Negative impedance responses”.

As to `CS(=O)(=O)Nc1cccc(-c2ccc(-c3cccnc3)cc2CCC(N)=O)c1` [D28, 3-(3′-((Methylsulfonyl)amino)-4-(pyridin-3-yl)biphenyl-2-yl)propanamide], in assay [1], the “Cellular impedance (baseline normalized cell index) response” value was “Negative impedance responses”.

For `NC(=O)CCc1cc(-c2cccnc2)ccc1-c1ccc2[nH]c(=O)[nH]c2c1` [D30, 3-(2-(2-Oxo-2,3-dihydro-1H-benzimidazol-5-yl)-5-(pyridin-3-yl)phenyl)propanamide], in the assay on lung fibrosis, the “Fibrosis in the lung compared to 16 week controls” value is “decreased” and the “Fibrosis in the lung compared to 20 week controls” value is on record as “decreased”. In addition, the “Cellular impedance (baseline normalized cell index) response” value in assay [1] is listed as “Negative impedance responses”.

Take `CNS(=O)(=O)Nc1cccc(-c2ccc(-c3cccnc3)cc2CCC(N)=O)c1` [D31, 3-(3′-((Methylsulfamoyl)amino)-4-(pyridin-3-yl)biphenyl-2-yl)propanamide]: the “Cellular impedance (baseline normalized cell index) response” value in assay [1] is reported as “Negative impedance responses”.

In the case of `Cc1nc(C)c(-c2ccc(-c3cccc(NS(C)(=O)=O)c3)c(CCC(N)=O)c2)s1` [D32, 4-(2,4-Dimethyl-1,3-thiazol-5-yl)-3-(3′-((methylsulfonyl)amino)biphenyl-2-yl)propanamide], in assay [1], the “Cellular impedance (baseline normalized cell index) response” value is “Negative impedance responses”.

Consider `CS(=O)(=O)Nc1cccc(-c2ccc(-c3ccc(F)cc3)cc2CCC(N)=O)c1` [D35, 3-(4″-Fluoro-3-((methylsulfonyl)amino)-1,1′:4′,1″-terphenyl-2′-yl)propanamide], for which the “Cellular impedance (baseline normalized cell index) response” value in assay [1] is “Negative impedance responses”.

In the case of `NC(=O)CCc1cc(-c2cccnc2)ccc1-c1cccc(NC(=O)Nc2cccc(-c3ccc(-c4cccnc4)cc3CCC(N)=O)c2)c1` [D167], in assay [1], the “Cellular impedance (baseline normalized cell index) response” value is recorded as “Negative impedance responses”.

For the compound `NC(=O)C=Cc1cc(-c2cncnc2)ccc1-c1ccnc(N)c1` [D171, 3-[2-(2-Aminopyridin-4-yl)-5-(pyrimidin-5-yl)phenyl]propenamide], the “Cellular impedance (baseline normalized cell index) response” value in assay [1] is given as “Negative impedance responses”.

For the compound `NC(=O)C=Cc1cc(-c2cncnc2)ccc1-c1cc(N)cc(N)c1` [D172, 3-(2-(3,5-Diaminophenyl)-5-(pyrimidin-5-yl)phenyl)propenamide], the “Cellular impedance (baseline normalized cell index) response” value in assay [1] is “Negative impedance responses”.

For `NC(=O)CCc1cc(-c2cnccn2)ccc1-c1cccc(O)c1` [P13, 3-[3′-Hydroxy-4-(pyrazin-2-yl)biphenyl-2-yl]propanamide], the “Fibrosis in the lung compared to 20 week controls” value in the assay on lung fibrosis was “decreased”. In assay [1], the “Cellular impedance (baseline normalized cell index) response” value is reported as “Negative impedance responses”.

Turning to `NC(=O)CCc1cc(-c2cccnn2)ccc1-c1cccc(O)c1` [P14, 3-[3′-Hydroxy-4-(pyridazin-3-yl)biphenyl-2-yl]propanamide], the “Cellular impedance (baseline normalized cell index) response” value in assay [1] was “Negative impedance responses”.

On to `NC(=O)CCc1cc(-c2ccncn2)ccc1-c1cccc(O)c1` [P25, 3-[3′-Hydroxy-4-(pyrimidin-4-yl)biphenyl-2-yl]propanamide], for which, in assay [1], the “Cellular impedance (baseline normalized cell index) response” value is reported as “Negative impedance responses”.

With `Cc1n[nH]c(C)c1-c1ccc(-c2cccc(O)c2)c(CCC(N)=O)c1` [P42], the “Cellular impedance (baseline normalized cell index) response” value in assay [1] was “Negative impedance responses”.

Regarding `Cc1ccsc1-c1ccc(-c2cccc(O)c2)c(CCC(N)=O)c1` [P43], the “Cellular impedance (baseline normalized cell index) response” value in assay [1] is recorded as “Negative impedance responses”.

On to `Cc1cscc1-c1ccc(-c2cccc(O)c2)c(CCC(N)=O)c1` [P44], for which the “Cellular impedance (baseline normalized cell index) response” value in assay [1] is “Negative impedance responses”.

On to `NC(=O)CCc1cc(-c2ccccc2)ccc1-c1cccc(O)c1` [VB0004], for which, in the assay on lung fibrosis, the “Fibrosis in the lung compared to 16 week controls” value is listed as “decreased” and the “Fibrosis in the lung compared to 20 week controls” value is given as “decreased”. In addition, the “Cellular impedance (baseline normalized cell index) response” value in assay [1] is given as “Negative impedance responses”.
